Where two headings read alike, the source gives them in different places.
System: Entamoeba histolytica
Type: cell-based
Source text: E. histolytica isolates representing three distinct zymodemes (I, II or XIV) were derived from a range of geographical locations. The patients from whom the isolates were obtained were either pathogenic (i.e. presented dysentery), or non-pathogenic (i.e., presented a non-dysenteric stage of infection characterized by passing of cysts or trophozoites). The following table identifies the E. histolytica isolates in accordance with the above criteria:
Each isolate was a xenic culture, i.e., it contained, in addition to the E. histolytica amoeba, the normally occurring patient faecal microflora. The cultures were maintained according to the method of Robinson, Trans. Roy. Soc. Trop. Med. Hyg. 62, 285-94, (1968). Bacitracin (70 I.U./mg) and its zinc salt (65 I.U./mg) were obtained from Apothekernes Laboratorium A.S (Oslo, Norway). Following microtitre-assay standardization and pilot testing of the drugs (results not presented), the following assay procedure was established. Bacitracin was screened over the range of 20.0-0.625 mg/ml by doubling dilution. 30 mg/ml bacitracin was also examined. […] The remaining wells were run as controls. An initial stock solution of 75 mg/ml bacitracin was prepared in starch-free Robinson medium (SFRM) . Subsequent to loading the first set of wells, the stock was diluted with SFRM to 50 mg/ml, which was used to prepare the remaining concentrations. […] 100 μl volumes of both drugs were then double-diluted in SFRM to provide 2.5X concentrates of the required final concentrations in the microtitre plates. 50 μl of a 25 mg% starch (BDH) solution (in SFRM) was then added to each well. 16-18 hours before the end of the required 48-hour culture period, the amoeba isolates were passaged to fresh tubes containing starch-free Robinson medium. At the end of the culture period, the amoebae were harvested in a small volume of medium and resuspended in at least 20 volumes SFRM. The suspensions were centrifuged at 1000 rpm for 5 minutes prior to re-suspension in fresh medium and counted in a modified Neubauer chamber. Amoebae were centrifuged as before and the pellet resuspended to a concentration of 2.5×10^4 /ml SFRM. 100 μl aliquots were then pipetted into respective wells to provide duplicate cultures of each isolate for each concentration assayed. The plates were then placed in an anaerobic chamber (HP11, Oxoid) at 37° C. for 24 hours. While this procedure provided sufficient starch for the amoebae, the concentration was such that at 24 hours the plates were easily read and quantitified by direct observation using an inverted microscope. Viability was assessed by the addition of Trypan blue to a final concentration of 0.1%.
Readings from each of the studies were collected and stored until all three experiments were completed in order to reduce any bias in subsequent readings. Minimun inhibitory and minimum lethal concentrations were given in mg/ml. […]

[1] = span over all xenic isolates and studies
[2] = xenic isolate 70k, Experiment 1
[3] = xenic isolate 70k, Experiment 2
[4] = xenic isolate 70k, Experiment 3
[5] = xenic isolate 116k, Experiment 1
[6] = xenic isolate 116k, Experiment 2
[7] = xenic isolate 116k, Experiment 3
[8] = xenic isolate 418, Experiment 1
[9] = xenic isolate 418, Experiment 2
[10] = xenic isolate 418, Experiment 3
[11] = xenic isolate 1246, Experiment 1
[12] = xenic isolate 1246, Experiment 2
[13] = xenic isolate 1246, Experiment 3
[14] = xenic isolate AiDO, Experiment 1
[15] = xenic isolate AiDO, Experiment 2
[16] = xenic isolate AiDO, Experiment 3
[17] = xenic isolate BiLO, Experiment 1
[18] = xenic isolate BiLO, Experiment 3
[19] = xenic isolate DOGO, Experiment 1
[20] = xenic isolate DOGO, Experiment 2
[21] = xenic isolate DOGO, Experiment 3
[22] = xenic isolate OMAk, Experiment 1
[23] = xenic isolate OMAk, Experiment 3
[24] = xenic isolate Sh2, Experiment 1
[25] = xenic isolate Sh2, Experiment 2
[26] = xenic isolate Sh2, Experiment 3
[27] = xenic isolate T2k, Experiment 1
[28] = xenic isolate T2k, Experiment 2
[29] = xenic isolate T2k, Experiment 3
[30] = xenic isolate URU1, Experiment 1
[31] = xenic isolate URU1, Experiment 2
[32] = xenic isolate URU1, Experiment 3
[33] = xenic isolate URU19, Experiment 1
[34] = xenic isolate URU19, Experiment 3

## Zinc bacitracin
In the xenic culture assay medium
  concentration at which precipitation occurred: ≥ 5000 µg/mL
[1]
  MICs: 0.16 to 1.25 mg/mL
  MLCs: 1.25 to 5.0 mg/mL
Xenic Isolate 1, single study over a narrower range of drug concentration (Table 4)
  Minimum Lethal Concentration (MLC): 1600 µg/mL
Xenic Isolate C1, single study over a narrower range of drug concentration (Table 4)
  Minimum Lethal Concentration (MLC): 1400 µg/mL
Xenic isolate 1, Experiment 1
  Minimum Inhibitory Concentration (MIC): 630 µg/mL
  Minimum Lethal Concentration (MLC): 2500 µg/mL
Xenic isolate 1, Experiment 2
  Minimum Inhibitory Concentration (MIC): 1250 µg/mL
  Minimum Lethal Concentration (MLC): 2500 µg/mL
Xenic isolate 1, Experiment 3
  Minimum Inhibitory Concentration (MIC): 310 µg/mL
  Minimum Lethal Concentration (MLC): 2500 µg/mL
[2]
  Minimum Inhibitory Concentration (MIC): 630 µg/mL
  Minimum Lethal Concentration (MLC): 2500 µg/mL
[3]
  Minimum Inhibitory Concentration (MIC): 630 µg/mL
  Minimum Lethal Concentration (MLC): 2500 µg/mL
[4]
  Minimum Inhibitory Concentration (MIC): 630 µg/mL
  Minimum Lethal Concentration (MLC): 2500 µg/mL
[5]
  Minimum Inhibitory Concentration (MIC): 630 µg/mL
  Minimum Lethal Concentration (MLC): 2500 µg/mL
[6]
  Minimum Inhibitory Concentration (MIC): 310 µg/mL
  Minimum Lethal Concentration (MLC): 1250 µg/mL
[7]
  Minimum Inhibitory Concentration (MIC): 310 µg/mL
  Minimum Lethal Concentration (MLC): 2500 µg/mL
[8]
  Minimum Inhibitory Concentration (MIC): 630 µg/mL
  Minimum Lethal Concentration (MLC): 5000 µg/mL
[9]
  Minimum Inhibitory Concentration (MIC): 310 µg/mL
  Minimum Lethal Concentration (MLC): 2500 µg/mL
[10]
  Minimum Inhibitory Concentration (MIC): 310 µg/mL
  Minimum Lethal Concentration (MLC): 2500 µg/mL
[11]
  Minimum Inhibitory Concentration (MIC): 160 µg/mL
  Minimum Lethal Concentration (MLC): 2500 µg/mL
[12]
  Minimum Inhibitory Concentration (MIC): 630 µg/mL
  Minimum Lethal Concentration (MLC): 2500 µg/mL
[13]
  Minimum Inhibitory Concentration (MIC): 310 µg/mL
  Minimum Lethal Concentration (MLC): 1250 µg/mL
[14]
  Minimum Inhibitory Concentration (MIC): 630 µg/mL
  Minimum Lethal Concentration (MLC): 2500 µg/mL
[15]
  Minimum Inhibitory Concentration (MIC): 160 µg/mL
  Minimum Lethal Concentration (MLC): 2500 µg/mL
[16]
  Minimum Inhibitory Concentration (MIC): 160 µg/mL
  Minimum Lethal Concentration (MLC): 2500 µg/mL
[17]
  Minimum Inhibitory Concentration (MIC): 310 µg/mL
  Minimum Lethal Concentration (MLC): 2500 µg/mL
[18]
  Minimum Inhibitory Concentration (MIC): 310 µg/mL
  Minimum Lethal Concentration (MLC): 2500 µg/mL
Xenic isolate C1, Experiment 1
  Minimum Inhibitory Concentration (MIC): 1250 µg/mL
  Minimum Lethal Concentration (MLC): 2500 µg/mL
Xenic isolate C1, Experiment 2
  Minimum Inhibitory Concentration (MIC): 310 µg/mL
  Minimum Lethal Concentration (MLC): 2500 µg/mL
Xenic isolate C1, Experiment 3
  Minimum Inhibitory Concentration (MIC): 310 µg/mL
  Minimum Lethal Concentration (MLC): 2500 µg/mL
Xenic isolate C2, Experiment 1
  Minimum Inhibitory Concentration (MIC): 630 µg/mL
  Minimum Lethal Concentration (MLC): 2500 µg/mL
Xenic isolate C2, Experiment 2
  Minimum Inhibitory Concentration (MIC): 630 µg/mL
  Minimum Lethal Concentration (MLC): 2500 µg/mL
Xenic isolate C2, Experiment 3
  Minimum Inhibitory Concentration (MIC): 310 µg/mL
  Minimum Lethal Concentration (MLC): 2500 µg/mL
Xenic isolate DA, Experiment 1
  Minimum Inhibitory Concentration (MIC): 630 µg/mL
  Minimum Lethal Concentration (MLC): 2500 µg/mL
Xenic isolate DA, Experiment 2
  Minimum Inhibitory Concentration (MIC): 630 µg/mL
  Minimum Lethal Concentration (MLC): 2500 µg/mL
Xenic isolate DA, Experiment 3
  Minimum Inhibitory Concentration (MIC): 630 µg/mL
  Minimum Lethal Concentration (MLC): 2500 µg/mL
[19]
  Minimum Inhibitory Concentration (MIC): 160 µg/mL
  Minimum Lethal Concentration (MLC): 2500 µg/mL
[20]
  Minimum Inhibitory Concentration (MIC): 310 µg/mL
  Minimum Lethal Concentration (MLC): 2500 µg/mL
[21]
  Minimum Inhibitory Concentration (MIC): 310 µg/mL
  Minimum Lethal Concentration (MLC): 1250 µg/mL
Xenic isolate GS, Experiment 1
  Minimum Inhibitory Concentration (MIC): 630 µg/mL
  Minimum Lethal Concentration (MLC): 2500 µg/mL
Xenic isolate GS, Experiment 2
  Minimum Inhibitory Concentration (MIC): 630 µg/mL
  Minimum Lethal Concentration (MLC): 2500 µg/mL
Xenic isolate GS, Experiment 3
  Minimum Inhibitory Concentration (MIC): 310 µg/mL
  Minimum Lethal Concentration (MLC): 2500 µg/mL
Xenic isolate MS, Experiment 1
  Minimum Inhibitory Concentration (MIC): 630 µg/mL
  Minimum Lethal Concentration (MLC): 2500 µg/mL
Xenic isolate MS, Experiment 2
  Minimum Inhibitory Concentration (MIC): 630 µg/mL
  Minimum Lethal Concentration (MLC): 1250 µg/mL
Xenic isolate MS, Experiment 3
  Minimum Inhibitory Concentration (MIC): 630 µg/mL
  Minimum Lethal Concentration (MLC): 2500 µg/mL
[22]
  Minimum Inhibitory Concentration (MIC): 310 µg/mL
  Minimum Lethal Concentration (MLC): 2500 µg/mL
[23]
  Minimum Inhibitory Concentration (MIC): 160 µg/mL
  Minimum Lethal Concentration (MLC): 2500 µg/mL
Xenic isolate SI, Experiment 1
  Minimum Inhibitory Concentration (MIC): 630 µg/mL
  Minimum Lethal Concentration (MLC): 2500 µg/mL
Xenic isolate SI, Experiment 3
  Minimum Inhibitory Concentration (MIC): 630 µg/mL
  Minimum Lethal Concentration (MLC): 2500 µg/mL
[24]
  Minimum Inhibitory Concentration (MIC): 630 µg/mL
  Minimum Lethal Concentration (MLC): 2500 µg/mL
[25]
  Minimum Inhibitory Concentration (MIC): 630 µg/mL
  Minimum Lethal Concentration (MLC): 2500 µg/mL
[26]
  Minimum Inhibitory Concentration (MIC): 310 µg/mL
  Minimum Lethal Concentration (MLC): 2500 µg/mL
[27]
  Minimum Inhibitory Concentration (MIC): 630 µg/mL
  Minimum Lethal Concentration (MLC): 5000 µg/mL
[28]
  Minimum Inhibitory Concentration (MIC): 310 µg/mL
  Minimum Lethal Concentration (MLC): 5000 µg/mL
[29]
  Minimum Inhibitory Concentration (MIC): 160 µg/mL
  Minimum Lethal Concentration (MLC): 2500 µg/mL
Xenic isolate T4, Experiment 1
  Minimum Inhibitory Concentration (MIC): 310 µg/mL
  Minimum Lethal Concentration (MLC): 2500 µg/mL
Xenic isolate T4, Experiment 2
  Minimum Inhibitory Concentration (MIC): 310 µg/mL
  Minimum Lethal Concentration (MLC): 2500 µg/mL
Xenic isolate T4, Experiment 3
  Minimum Inhibitory Concentration (MIC): 160 µg/mL
  Minimum Lethal Concentration (MLC): 2500 µg/mL
Xenic isolate T6, Experiment 1
  Minimum Inhibitory Concentration (MIC): 310 µg/mL
  Minimum Lethal Concentration (MLC): 2500 µg/mL
Xenic isolate T6, Experiment 2
  Minimum Inhibitory Concentration (MIC): 630 µg/mL
  Minimum Lethal Concentration (MLC): 2500 µg/mL
Xenic isolate T6, Experiment 3
  Minimum Inhibitory Concentration (MIC): 310 µg/mL
  Minimum Lethal Concentration (MLC): 2500 µg/mL
[30]
  Minimum Inhibitory Concentration (MIC): 630 µg/mL
  Minimum Lethal Concentration (MLC): 2500 µg/mL
[31]
  Minimum Inhibitory Concentration (MIC): 1250 µg/mL
  Minimum Lethal Concentration (MLC): 2500 µg/mL
[32]
  Minimum Inhibitory Concentration (MIC): 630 µg/mL
  Minimum Lethal Concentration (MLC): 2500 µg/mL
[33]
  Minimum Inhibitory Concentration (MIC): 630 µg/mL
  Minimum Lethal Concentration (MLC): 2500 µg/mL
[34]
  Minimum Inhibitory Concentration (MIC): 310 µg/mL
  Minimum Lethal Concentration (MLC): 2500 µg/mL

Reference: US5300491A, “Treatment of protozoal infection” (priority 1992, dated 1994)
